Data on one molecule can be found in patent US20190167716A9, “Use of Electrolyzed Water for Treatment and Prevention of Common Livestock Diseases and Conditions, Including PRRS” (priority 2013, published 2019).

The test system of the assay is streptococcus. Briefly: Fog test in bi-room swine confinement infected with streptococcus. The settings on record: both rooms after a course of R-pen; recurred 10 days later in the control room. It counts as in vivo. The protocol:
A test was conducted in a 70′×280′ bi-room configuration swine confinement in a wean to finish operation infected with streptococcus symptoms and showing severe symptoms. The swine confinement included a common effluent pit with center dividing wall and pit level equalization cutouts at the base. Each room included a standard layout with […] and a 24 inch gated alleyway. Capacity was 2480 head, each room was 70 feet by 140 feet; one room was used as the test room to receive the electrolyzed water treatment, the other as a control. Two high pressure lines, centered through the barn at 12 inches below the ceiling, were used to deliver the electrolyzed water. The water was delivered via 60 nozzles in the treatment room, rated at 0.020 gallons per minute, two for each pen, at 1000 psi. The output of fog or mist to the room was 1.2 gallon per minute, delivered by 1000 psi 3 gpm 2 horsepower pump, actuated by a preset timer. The fog was administered for about 1 minute, each of four times a day at generally equally spaced intervals. Total was about 4.8 gallons per 24 hour period.
Both rooms were filled Oct. 17, 2013. Treatment began 1 week later and continued for 15 weeks. […] The death report, per room per week during the 15 week trial was as follows: […]

In the case of `CC1(C)S[C@@H]2[C@H](NC(=O)Cc3ccccc3)C(=O)N2[C@H]1C(=O)[O-].[K+]` [R-pen], the strep symptoms entry was “decrease in strep symptoms”.
